Laboratory results as given in patent US5976797A, “Method for quantifying total mRNA with poly(A)-complementary oligonucleotide-immobilized microtiter plate” (Hitachi Chemical Co., Ltd., priority 1996, dated 1999).
In brackets after ≈: the same amount, converted by molar mass.

Columns and labels:
[1] = tested on: U937 human histiocytic lymphomas cell line; experiment: MTT assay, U937 cells; format: cell-based; conditions: for IC50 (MTT) / IC50: mean ± SD, n = 4; for IC50: Homo sapiens, U-937
Experimental: (§1) The CaR-1 human colon cancer cell line (JCRB0207) was a gift from Dr. K. Miyazaki (Kihara Institute for Biological Research, Yokohama, Japan). YOYO-1™ was purchased from Molecular Probes (Eugene, Oreg.). All other chemicals were purchased from Sigma (St. Louis, Mis.). Oligonucleotides were synthesized by a synthesizer (Applied Biosystems, San Jose, Calif.) according to the manufacturer's protocol.
(§2) U937, HL-60 and CaR-1 cells were grown in RPMI 1640 containing 50 units/ml penicillin, 50 μg/ml streptomycin, and 10% FCS at 37° C. in 5% CO2, 95% air. HepG2 cells were grown in Eagle's minimum essential medium (MEM) with 0.1 mM nonessential amino acids, 1 mM sodium pyruvate and Earle's balance solution (BSS). Floating cells were subcultured two to three times a week and adherent cells were removed by trypsinization and subcultured two to four times a month. Initial cell viability was always more than 95% as assessed by the exclusion of trypan blue (Ausubel et al., Current Protocols in Molecular Biology, John Wiley & Sons 1988; 11.5.1-11.5.2). The number of cells was determined in a hemocytometer.
(§3) The following drugs have been tested using the reported peak plasma concentrations (PPCs) achieved during intravenous administration of clinical doses (Werner et al., Cancer Treat Rep 1986; 70:1379-1382). […] The drugs were tested at 0.001, 0.01, 0.1, 1.0 and 10× PPC. Vinblastine was occasionally tested at 100× PPC.
(§4) Cells were suspended in medium supplemented with 10% FCS, and 100 μl of single cell suspension containing 1×10^5 cells were added to the individual wells on 96 well microtiter plates. One hundred μl of anticancer drugs were added to each well to give the final concentrations as indicated above. The plates were incubated at 37° C. in a humidified atmosphere containing 5% CO2 in air for various periods. Twenty μl of 0.25% MTT in PBS was added to each well, and plates were incubated for an additional three hours. After centrifugation, supernatant solutions were removed and 200 μl of dimethyl sulfoxide were added to dissolve formazon products, and the plates were shaken for five minutes on a plate shaker (IS-963, Tomy, Palo Alto, Calif.). The absorbance of the well was read on a microplate spectrophotometer (Thermo max, Molecular Device, Mountain View, Calif.) using wavelength at 560 nm.
(§5) Chemosensitivity was assessed for both continuous drug exposure and transient exposure (two hours). Total cytosolic poly(A)+ mRNA was measured as described in the Methods.
(§6) U937 cells were seeded at a density of 1×10^6 cells/ml in RPMI containing 10% FCS in a 96-well plate for MTT assay (.gradient.,.quadrature.) and a 24-well plate for the mRNA assay (.circle-solid.,.tangle-soliddn.). […] The values indicated in the means±standard error of triplicate determinations from a single experiment. Similar results were reproduced in more than three independent experiments (data not shown). […] MTT and mRNA assays were carried out as described in the Methods. The data obtained from the three-day MTT assay with 1× PPC (x-axis) were compared with those of the 12-hour mRNA assay with 10× PPC (y-axis). FIG. 8D (Total) is a mixture of FIGS. 8A-8C. Each point represents the means of triplicate determinations.

[2] = tested on: U937 human histiocytic lymphomas cell line; experiment: total mRNA assay (GENEPLATE, YOYO-1), U937 cells; format: cell-based; conditions: mean ± SD, n = 4; for IC50: Homo sapiens, U-937
Experimental: as §1, §2
The drugs were tested at 0.001, 0.01, 0.1, 1.0 and 10× PPC. Vinblastine was occasionally tested at 100× PPC.
(§7) Detailed procedures were described in our previous publication (Tominaga et al., Clin. Chem. 1996; 42:11, 1750-1757). In brief, 1 ml of cell suspension containing 5×10^5 cells were plated to each well of 12-well tissue culture plates for various periods, and each drug was exposed continuously or for two hours. Harvested cultured cells were washed with PBS one to two times. Cells were then resuspended in 200 μl of diethylpyrocarbonate (DEPC) -treated lysis buffer (10 mM Tris, pH7.5, 1 mM EDTA, 0.5M NaCl, 0.5% NP-40 and 20 mM VRC for five minutes on ice, then immediately centrifuged at 15,000 xg at 4° C. for five minutes. Fifty μl each of the supernatant was applied to the GENEPLATE™ (oligonucleotide-immobilized microplate) (Mitsuhashi et al., Nature 1992, 357:519-520). After one hour incubation at room temperature, unbound non-mRNA was removed by aspiration and washed with a low salt buffer (10 mM Tris, pH 7.6, 1 mM EDTA, 0.1 M naCl) three times. Fifty μl of YOYO-1™ in the final dilution of 1:1000 in TAE buffer (40 mM Tris-acetate, pH 8.0, 1 mM EDTA) was added to each well, and the fluorescence intensity of each well was measured by a fluorescent plate reader (CytoFlour™ 2300, Millipore, Bedford, Mass.) with excitation and emission wavelengths of 485 nm (bandwidth 20 nm) and 530 nm (bandwidth 25 nm), respectively, as previously described (Glazer et al., Nature 1992;359:859-861 and Ogura et al., Biotechniques 1994; 18:231-232).
as §5, §6

[3] = tested on: HL-60 human promyelocytic leukemia cell line; experiment: MTT assay, HL-60 cells; format: cell-based; conditions: mean ± SD, n = 4; for IC50: Homo sapiens, HL-60
Experimental: as §1, §2, §3, §4, §5

[4] = tested on: HL-60 human promyelocytic leukemia cell line; experiment: total mRNA assay (GENEPLATE, YOYO-1), HL-60 cells; format: cell-based; conditions: mean ± SD, n = 4; for IC50: Homo sapiens, HL-60
Experimental: as §1, §2, §3, §7, §5

[5] = tested on: CaR-1 human colon cancer cell line; experiment: MTT assay, CaR-1 cells; format: cell-based; conditions: mean ± SD, n = 4; for IC50: Homo sapiens
Experimental: as §1, §2, §3, §4, §5

[6] = tested on: CaR-1 human colon cancer cell line; experiment: total mRNA assay (GENEPLATE, YOYO-1), CaR-1 cells; format: cell-based; conditions: mean ± SD, n = 4; for IC50: Homo sapiens
Experimental: as §1, §2, §3, §7, §5

[7] = tested on: HepG2 human hepatocellular line; experiment: MTT assay, HepG2 cells; format: cell-based; conditions: mean ± SD, n = 4; for IC50: Homo sapiens
Experimental: as §1, §2, §3, §4, §5

[8] = tested on: HepG2 human hepatocellular line; experiment: total mRNA assay (GENEPLATE, YOYO-1), HepG2 cells; format: cell-based; conditions: mean ± SD, n = 4; for IC50: Homo sapiens
Experimental: as §1, §2, §3, §7, §5

U937 cells = experiment: quantification of cytosolic mRNA after PMA-induced differentiation, U937 cells; format: cell-based, human
Excerpt: (§8) We obtained from the respective suppliers human Jurkat, Molt-4, U937, and HL-60 cells (American Type Culture Collection, Rockville, Md.); MICROFAST TRACK™ 228 Kit (mRNA purification kit using oligo-(dT) cellulose, (Invitrogen, San Diego, Calif.); cell culture media, fetal calf serum, (FCS: fatal calf serum), phosphate-buffered saline (PBS: phosphate-buffered saline), rabbit globin mRNA, and vanadyl-ribonucleosidecomplex (VRC: vanadyl-ribonucleoside complex; Gibco-BRL, Baithersburg, Md.); Isolymph (Gallard-Schlesinger, Carle Place, N.Y.); calf thymus DNA (Clontech, Palo Alto, Calif.); DNase (Boehringer Mannheim, Indianapolis, Ind.); RNase (Stratagene, La Jolla, Calif.); and GENEPLATE™ (oligonucleotide-immobilized microplate,(Hitachi Chemical Research Center, Irvine Calif. and Hitachi Chemical Co., Ibaraki, Japan). All other chemicals were purchased from Sigma Chemical Co. (St. Louis, Mis.). Oligonucleotides were synthesized by a synthesizer (Applied Biosystems, San Jose, Calif.), according to the manufacturer's protocol.
(§9) Human Jurkat and Molt-4 cells were grown in RPMI 1640 containing 100 U/mL penicillin, 100 μg/mL streptomycin, and 100 mL/L FCS at 37° C. in CO2 :air, 5:95 (by vol). […] Each cell line was subcultured two to three times a week, and viability was always >90%, as assessed by the exclusion of trypan blue. The number of cells was determined with a hemocytometer. […]

HL-60 cells = experiment: quantification of cytosolic mRNA after PMA-induced differentiation, HL-60 cells; format: cell-based, human
Excerpt: as §8, §9

[9] = U937, continuous exposure 72 hours
[10] = U937, transient exposure 2 hours
[11] = HL60, continuous exposure 72 hours
[12] = HL60, transient exposure 2 hours
[13] = CaR-1, continuous exposure 72 hours
[14] = CaR-1, transient exposure 2 hours
[15] = HepG2, continuous exposure, printed 82 hours
[16] = HepG2, transient exposure 2 hours
[17] = 48 h after PMA treatment (160 nmol/L), n=8, P<0.01
[18] = phorbol ester-induced differentiated

`N.N.[Cl][Pt][Cl]` [Cisplatin, cisplatin] was tested, and the “time after drug treatment at which similar reduction was observed, MTT assay” value ([1]; U937, 10× PPC, continuous exposure) was 48 h, the “IC50 (MTT)” value [1, 9] was 1.77 ± 0.05 µg/mL and the “IC50 (MTT)” value [1, 10] was 22.65 ± 0.03 µg/mL. The “IC50 (mRNA)” value [2, 9] was 1.58 ± 0.39 µg/mL, the “IC50 (mRNA)” value [2, 10] was 18.52 ± 4.69 µg/mL and the “IC50 (MTT)” value [3, 11] was 1.14 ± 0.01 µg/mL. The “IC50 (MTT)” value [3, 12] was 12.68 ± 0.30 µg/mL, the “IC50 (mRNA)” value [4, 11] was 1.21 µg/mL and the “IC50 (mRNA)” value [4, 12] was 9.30 µg/mL. For the same molecule, the “IC50 (MTT)” value [5, 13] was 3.08 ± 0.54 µg/mL, the “IC50 (MTT)” value [5, 14] was > 20 µg/mL and the “IC50 (mRNA)” value [6, 13] was 3.09 ± 0.34 µg/mL. For the same molecule, the “IC50 (mRNA)” value [6, 14] was > 20 µg/mL, the “IC50 (MTT)” value [7, 15] was 8.86 ± 0.40 µg/mL and the “IC50 (MTT)” value [7, 16] was > 20 µg/mL. For the same molecule, the “IC50 (mRNA)” value [8, 15] was 9.81 ± 0.64 µg/mL and the “IC50 (mRNA)” value [8, 16] was > 20 µg/mL.
Molecule `CO[C@@]12[C@H](COC(N)=O)C3=C(C(=O)C(C)=C(N)C3=O)N1C[C@@H]1N[C@@H]12` [Mitomycin C, mitomycin C] has an IC50 [1, 9] of 0.29 ± 0.01 µg/mL (≈ 0.867 µM), an IC50 [1, 10] of 2.46 ± 0.04 µg/mL (≈ 7.36 µM) and an IC50 [2, 9] of 0.23 ± 0.03 µg/mL (≈ 0.688 µM). It also gave an IC50 [2, 10] of 2.01 ± 0.11 µg/mL (≈ 6.01 µM), an IC50 [3, 11] of 0.045 µg/mL (≈ 0.135 µM) and an IC50 [3, 12] of 1.34 ± 0.01 µg/mL (≈ 4.01 µM). It also gave an IC50 [4, 11] of 0.22 ± 0.01 µg/mL (≈ 0.658 µM), an IC50 [4, 12] of 2.29 µg/mL (≈ 6.85 µM) and an IC50 [5, 13] of 2.12 ± 0.08 µg/mL (≈ 6.34 µM). The IC50 [5, 14] was 21.3 µg/mL (≈ 63.7 µM), the IC50 [6, 13] was 2 ± 0.16 µg/mL (≈ 5.98 µM) and the IC50 [6, 14] was 21.3 ± 0.95 µg/mL (≈ 63.7 µM). The IC50 [7, 15] was 2.08 ± 0.09 µg/mL (≈ 6.22 µM), the IC50 [7, 16] was 24.2 ± 0.81 µg/mL (≈ 72.4 µM) and the IC50 [8, 15] was 1.89 ± 0.06 µg/mL (≈ 5.65 µM). The IC50 [8, 16] was 36.9 µg/mL (≈ 110 µM).
With `CCCCCCCCCCCCCC(=O)O[C@@H]1[C@@H](C)[C@@]2(O)[C@@H](C=C(CO)C[C@]3(O)C(=O)C(C)=C[C@@H]23)[C@@H]2C(C)(C)[C@]12OC(C)=O` [PMA, phorbol 12-myristate 13-acetate] the “mRNA content in 10^6 differentiated U937 cells” value (U937 cells; [17]) was 145.3±13.9 μg/mL, the “amount of cytosolic mRNA in differentiated U937 cells” value (U937 cells; [18]) was 145.3±13.9 ng/10^6 cells and the “mRNA content in 10^6 differentiated HL-60 cells” value (HL-60 cells; [17]) was 164.7±11.6 μg/mL. For the same molecule, the “amount of cytosolic mRNA in differentiated HL-60 cells” value (HL-60 cells; [18]) was 164.7±11.6 ng/10^6 cells.
With `CC[C@]1(O)C[C@@H]2CN(CCc3c([nH]c4ccccc34)[C@@](C(=O)OC)(c3cc4c(cc3OC)N(C)[C@H]3[C@@](O)(C(=O)OC)[C@H](OC(C)=O)[C@]5(CC)C=CCN6CC[C@]43[C@@H]65)C2)C1` [Vinblastine, vinblastine] the IC50 [1, 9] was < 0.0005 µg/mL, the IC50 [1, 10] was 0.034 ± 0.003 µg/mL (≈ 0.0419 µM) and the IC50 [2, 9] was < 0.0005 µg/mL. For the same molecule, the IC50 [2, 10] was 0.029 ± 0.001 µg/mL (≈ 0.0358 µM), the IC50 [3, 11] was < 0.0005 µg/mL and the IC50 [3, 12] was 0.026 ± 0.001 µg/mL (≈ 0.0321 µM). For the same molecule, the IC50 [4, 11] was < 0.0005 µg/mL, the IC50 [4, 12] was 0.031 µg/mL (≈ 0.0382 µM) and the IC50 [5, 13] was 22.2 ± 14.4 µg/mL (≈ 27.3 µM). The IC50 [5, 14] was > 50 µg/mL, the IC50 [6, 13] was 34.9 ± 4.8 µg/mL (≈ 43 µM) and the IC50 [6, 14] was > 50 µg/mL. For the same molecule, the IC50 [7, 15] was 32.6 ± 8.46 µg/mL (≈ 40.2 µM), the IC50 [7, 16] was > 50 µg/mL and the IC50 [8, 15] was 3.45 ± 0.63 µg/mL (≈ 4.25 µM). It also gave an IC50 [8, 16] of 34.6 ± 1.75 µg/mL (≈ 42.7 µM).
